From ChEMBL document CHEMBL4261619, “Sentulic acid isolated from Sandoricum koetjape Merr attenuates lipopolysaccharide and interferon gamma co-stimulated nitric oxide production in murine macrophage RAW264 cells” (Bioorg Med Chem Lett, 2018)
Active and inactive are the calls of the source. The rule behind the calls is not given here.

How the values were obtained:
RAW264.7 = assay: Inhibition of IFNgamma binding to IFNGR in LPS-stimulated mouse RAW264.7 cells assessed as effect on ratio of phosphorylated Stat1 to total Stat1 at 100 uM measured after 60 mins by Western blot analysis relative to beta-actin (reference value: 4.1); assay type: cell-based
[1] = biological target: T1, Nuclear factor erythroid 2-related factor 2 (Mus musculus) (UniProt Q60795); assay: Induction of NRF2-ARE mediated HO-1 expression in mouse RAW264.7 cells at 100 uM after 2 hrs by Western blot analysis; assay type: cell-based
T1 sequence (whole entry): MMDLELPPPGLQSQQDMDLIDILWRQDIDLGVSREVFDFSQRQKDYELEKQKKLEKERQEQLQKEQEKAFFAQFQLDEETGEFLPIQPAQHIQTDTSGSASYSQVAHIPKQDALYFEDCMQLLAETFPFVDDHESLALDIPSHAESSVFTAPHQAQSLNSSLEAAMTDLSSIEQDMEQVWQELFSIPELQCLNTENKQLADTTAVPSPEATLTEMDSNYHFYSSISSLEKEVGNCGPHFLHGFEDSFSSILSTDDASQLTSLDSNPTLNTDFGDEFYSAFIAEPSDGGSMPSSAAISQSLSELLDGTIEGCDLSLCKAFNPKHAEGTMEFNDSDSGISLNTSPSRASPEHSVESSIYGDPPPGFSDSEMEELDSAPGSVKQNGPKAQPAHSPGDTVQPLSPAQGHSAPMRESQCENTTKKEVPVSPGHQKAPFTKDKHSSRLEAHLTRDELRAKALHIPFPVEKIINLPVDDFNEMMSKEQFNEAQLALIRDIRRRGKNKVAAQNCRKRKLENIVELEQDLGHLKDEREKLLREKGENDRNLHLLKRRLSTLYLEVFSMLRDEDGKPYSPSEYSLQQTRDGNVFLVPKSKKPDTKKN

- Activity [1]: inactive
SMILES: C=C(C)[C@@H]1CC[C@]2(C)[C@H](CC=C3[C@@H]4CC(C)(C)CC[C@]4(C)CC[C@]32C(=O)O)[C@@]1(C)CCC(=O)O
- fold change (FC) (RAW264.7): 1.8
